Experiments:
Set-up in all cases: purchased Milipore (Millipore)
[1] = biological target: T1, Human adrenergic α2B receptor (Homo sapiens, UniProt P18089); assay: Radioligand binding, adrenergic α2B (Protocol Group B); conditions: for Percentage inhibition of ligand binding, Adrenergic α2B, 0.1 nM: 0.1 nM compound, 0.0001 µM; for Percentage inhibition of ligand binding, Adrenergic α2B, 0.32 nM: 0.32 nM compound, 0.00032 µM; for Percentage inhibition of ligand binding, Adrenergic α2B, 1 nM: 1 nM compound, 0.001 µM; for Percentage inhibition of ligand binding, Adrenergic α2B, 3.2 nM: 3.2 nM compound, 0.0032 µM; for inhibition at 0.01 µM / Percentage inhibition of ligand binding, Adrenergic α2B (10 nM): 10 nM compound; for inhibition at 0.01 µM / inhibition at 0.03 µM / inhibition at 0.1 µM / Ki / Percentage inhibition of ligand binding, Adrenergic α2B (10 nM) / Percentage inhibition of ligand binding, Adrenergic α2B (30 nM) / Percentage inhibition of ligand binding, Adrenergic α2B (0.1 μM): Protocol Group B; for inhibition at 0.01 µM: read-out: Percentage inhibition of ligand binding, Adrenergic α2B (10 nM); for inhibition at 0.03 µM / Percentage inhibition of ligand binding, Adrenergic α2B (30 nM): 30 nM compound; for inhibition at 0.03 µM: read-out: Percentage inhibition of ligand binding, Adrenergic α2B (30 nM); for inhibition at 0.1 µM / Percentage inhibition of ligand binding, Adrenergic α2B (0.1 μM): 0.1 μM compound; for inhibition at 0.1 µM: read-out: Percentage inhibition of ligand binding, Adrenergic α2B (0.1 μM); for Ki: estimated Ki, read-out: Ki α2B; for Percentage inhibition of ligand binding, Adrenergic α2B (10 nM): 0.01 µM
T1 sequence (P18089 1-450): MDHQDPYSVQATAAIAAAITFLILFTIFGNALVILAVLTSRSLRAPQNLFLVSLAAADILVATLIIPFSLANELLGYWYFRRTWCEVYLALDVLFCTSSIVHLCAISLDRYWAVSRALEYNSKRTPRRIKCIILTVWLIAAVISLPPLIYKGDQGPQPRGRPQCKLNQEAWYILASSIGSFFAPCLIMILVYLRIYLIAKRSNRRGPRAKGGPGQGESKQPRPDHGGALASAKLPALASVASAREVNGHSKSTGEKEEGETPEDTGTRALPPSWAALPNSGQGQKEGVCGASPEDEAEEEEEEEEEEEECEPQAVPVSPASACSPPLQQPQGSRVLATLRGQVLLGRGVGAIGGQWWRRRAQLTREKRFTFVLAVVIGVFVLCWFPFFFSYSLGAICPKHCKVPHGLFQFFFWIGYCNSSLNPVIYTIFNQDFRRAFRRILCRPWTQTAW
Summary of the method: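 Recombinant human α2B receptor membranes incubated with compounds in 50 mM Tris-HCl pH 7.4, 5 mM MgCl2, 1 mM CaCl2, 0.2% BSA, 1% DMSO vehicle. Non-specific binding defined with 10 μM rauwolscine. Values are percent inhibition of specific binding or estimated Ki.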

[2] = biological target: T2, Human adrenergic α2A receptor (Homo sapiens, UniProt P08913); assay: Radioligand binding, adrenergic α2A (Protocol Group B); conditions: for Percentage inhibition of ligand binding, Adrenergic α2A, 3.2 nM: 3.2 nM compound, 0.0032 µM; for Percentage inhibition of ligand binding, Adrenergic α2A, 10 nM: 10 nM compound, 0.01 µM; for Percentage inhibition of ligand binding, Adrenergic α2A, 0.032 μM: 0.032 μM compound; for inhibition at 0.3 µM / Percentage inhibition of ligand binding, Adrenergic α2A (0.3 μM): 0.3 μM compound; for inhibition at 0.3 µM: read-out: Percentage inhibition of ligand binding, Adrenergic α2A (0.3 μM); for Percentage inhibition of ligand binding, Adrenergic α2A, 0.32 μM: 0.32 μM compound; for Ki: estimated Ki
T2 sequence (P08913 1-465): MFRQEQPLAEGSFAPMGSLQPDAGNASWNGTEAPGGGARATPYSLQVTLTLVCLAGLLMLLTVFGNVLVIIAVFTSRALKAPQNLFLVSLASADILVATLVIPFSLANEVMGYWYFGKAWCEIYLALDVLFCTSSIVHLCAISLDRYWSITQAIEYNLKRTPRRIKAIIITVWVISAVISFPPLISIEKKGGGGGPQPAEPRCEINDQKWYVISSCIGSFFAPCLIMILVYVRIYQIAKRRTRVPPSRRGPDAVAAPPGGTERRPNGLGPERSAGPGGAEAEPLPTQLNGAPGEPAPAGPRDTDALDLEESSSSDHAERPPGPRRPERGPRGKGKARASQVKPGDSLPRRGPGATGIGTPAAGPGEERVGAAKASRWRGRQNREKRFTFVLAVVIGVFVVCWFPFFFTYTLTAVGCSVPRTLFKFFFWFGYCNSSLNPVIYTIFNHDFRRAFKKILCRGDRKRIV
Summary of the method: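 Membranes from recombinant cells expressing the receptor, in 50 mM Tris-HCl pH 7.4 with 5 mM MgCl2, 1 mM CaCl2, 0.2% BSA; compounds incubated with 2 nM [^3H]MK-912 for 60 min at 25° C. Nonspecific binding defined by 10 μM rauwolscine; filtration, counting; percent inhibition of specific binding, or estimated Ki.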

[3] = biological target: T3, Human adrenergic α1B receptor (Homo sapiens, UniProt P35368); assay: Radioligand binding, adrenergic α1B (Protocol Group B); conditions: for Percentage inhibition of ligand binding, Adrenergic α1B, 10 nM: 10 nM compound, 0.01 µM; for Percentage inhibition of ligand binding, Adrenergic α1B, 0.032 μM: 0.032 μM compound; for inhibition at 0.3 µM / Percentage inhibition of ligand binding, Adrenergic α1B (0.3 μM): 0.3 μM compound; for inhibition at 0.3 µM: read-out: Percentage inhibition of ligand binding, Adrenergic α1B (0.3 μM); for Ki: estimated Ki
T3 sequence (P35368 1-520): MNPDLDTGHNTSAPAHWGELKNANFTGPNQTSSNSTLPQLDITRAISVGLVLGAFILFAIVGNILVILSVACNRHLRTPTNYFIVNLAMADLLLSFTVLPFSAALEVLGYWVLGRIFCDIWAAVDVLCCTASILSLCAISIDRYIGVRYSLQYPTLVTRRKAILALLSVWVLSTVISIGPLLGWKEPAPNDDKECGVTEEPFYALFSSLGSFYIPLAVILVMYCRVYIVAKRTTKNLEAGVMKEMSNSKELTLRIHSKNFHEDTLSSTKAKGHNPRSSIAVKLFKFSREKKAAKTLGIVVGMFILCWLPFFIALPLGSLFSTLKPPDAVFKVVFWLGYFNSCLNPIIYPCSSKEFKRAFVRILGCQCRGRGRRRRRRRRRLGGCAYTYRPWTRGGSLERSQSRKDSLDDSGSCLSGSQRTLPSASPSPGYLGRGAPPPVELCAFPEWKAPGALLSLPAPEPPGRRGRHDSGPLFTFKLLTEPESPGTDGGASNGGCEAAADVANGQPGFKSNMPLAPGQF
Summary of the method: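 Recombinant human α1B membranes incubated with test compound and 0.3 nM [3H]prazosin, 60 min at 25 °C, in 50 mM Tris-HCl pH 7.4, 10 mM MgCl2, 1 mM EDTA; nonspecific binding with 10 μM prazosin. Filter-bound radioactivity counted; values are % inhibition of specific binding or estimated Ki.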

[4] = 0.1 μM compound, Protocol Group B
[5] = 1 μM compound, concentration series, 1 µM

## Cc1cc(C)c2c(c1)c1c(n2CC(C)(O)c2ccncc2)CCN2CCCC12 (single isomer, unassigned) [19a]
[1]; 0.032 nM compound, concentration series, read-out: Percentage inhibition of ligand binding, Adrenergic α2B, 0.032 nM
  inhibition at 32 pM: 3%
[1]; concentration series
  Percentage inhibition of ligand binding, Adrenergic α2B, 0.1 nM: 8%
  Percentage inhibition of ligand binding, Adrenergic α2B, 0.32 nM: 9%
  Percentage inhibition of ligand binding, Adrenergic α2B, 1 nM: 18%
  Percentage inhibition of ligand binding, Adrenergic α2B, 3.2 nM: 64%
[1]
  inhibition at 0.01 µM: 94%
  inhibition at 0.03 µM: 99%
  inhibition at 0.1 µM: 100%
  Ki: 1 nM
[1]; 0.032 μM compound, concentration series, read-out: Percentage inhibition of ligand binding, Adrenergic α2B, 0.032 μM
  inhibition at 0.032 µM: 99%
[2]; 1 nM compound, concentration series, read-out: Percentage inhibition of ligand binding, Adrenergic α2A, 1 nM
  inhibition at 0.001 µM: 3%
[2]; concentration series
  Percentage inhibition of ligand binding, Adrenergic α2A, 3.2 nM: 0%
  Percentage inhibition of ligand binding, Adrenergic α2A, 10 nM: 22%
  Percentage inhibition of ligand binding, Adrenergic α2A, 0.032 μM: 49%
  Percentage inhibition of ligand binding, Adrenergic α2A, 0.32 μM: 92%
[2]; [4]
  Percentage inhibition of ligand binding, Adrenergic α2A (0.1 μM): 72%
[2]; Protocol Group B
  inhibition at 0.3 µM: 87%
  Ki: 16.2 nM
[2]; 1 μM compound, concentration series, read-out: Percentage inhibition of ligand binding, Adrenergic α2A, 1 μM
  inhibition at 1 µM: 98%
[2]; 3.2 μM compound, concentration series, read-out: Percentage inhibition of ligand binding, Adrenergic α2A, 3.2 μM
  inhibition at 3.2 µM: 100%
[3]; 0.32 nM compound, concentration series, read-out: Percentage inhibition of ligand binding, Adrenergic α1B, 0.32 nM
  inhibition at 0.00032 µM: 13%
[3]; 1 nM compound, concentration series, read-out: Percentage inhibition of ligand binding, Adrenergic α1B, 1 nM
  inhibition at 0.001 µM: 2%
[3]; 3.2 nM compound, concentration series, read-out: Percentage inhibition of ligand binding, Adrenergic α1B, 3.2 nM
  inhibition at 0.0032 µM: 7%
[3]; concentration series
  Percentage inhibition of ligand binding, Adrenergic α1B, 10 nM: 24%
  Percentage inhibition of ligand binding, Adrenergic α1B, 0.032 μM: 61%
[3]; [4]
  Percentage inhibition of ligand binding, Adrenergic α1B (0.1 μM): 82%
[3]; Protocol Group B
  inhibition at 0.3 µM: 93%
  Ki: 7.5 nM
[3]; 0.32 μM compound, concentration series, read-out: Percentage inhibition of ligand binding, Adrenergic α1B, 0.32 μM
  inhibition at 0.32 µM: 96%
[3]; 1 μM compound, concentration series, read-out: Percentage inhibition of ligand binding, Adrenergic α1B, 1 μM
  inhibition at 1 µM: 95%

## Cc1cc(C)c2c(c1)c1c(n2CC(C)(O)c2ccncc2)CCN2CCCC12 (single isomer, unassigned) [19b]
[1]; 0.032 nM compound, concentration series, 32 pM
  Percentage inhibition of ligand binding, Adrenergic α2B, 0.032 nM: 6%
[1]; concentration series
  Percentage inhibition of ligand binding, Adrenergic α2B, 0.1 nM: 0%
  Percentage inhibition of ligand binding, Adrenergic α2B, 0.32 nM: 2%
  Percentage inhibition of ligand binding, Adrenergic α2B, 1 nM: 4%
  Percentage inhibition of ligand binding, Adrenergic α2B, 3.2 nM: 31%
[1]
  Percentage inhibition of ligand binding, Adrenergic α2B (10 nM): 91%
  Percentage inhibition of ligand binding, Adrenergic α2B (0.1 μM): 99%
  Ki: 2.4 nM
[1]; 0.03 µM
  Percentage inhibition of ligand binding, Adrenergic α2B (30 nM): 97%
[1]; 0.032 μM compound, concentration series, 0.032 µM
  Percentage inhibition of ligand binding, Adrenergic α2B, 0.032 μM: 95%
[2]; concentration series
  Percentage inhibition of ligand binding, Adrenergic α2A, 3.2 nM: 12%
  Percentage inhibition of ligand binding, Adrenergic α2A, 10 nM: 4%
  Percentage inhibition of ligand binding, Adrenergic α2A, 0.032 μM: 27%
  Percentage inhibition of ligand binding, Adrenergic α2A, 0.32 μM: 67%
[2]; [4]
  Percentage inhibition of ligand binding, Adrenergic α2A (0.1 μM): 51%
[2]; Protocol Group B
  Percentage inhibition of ligand binding, Adrenergic α2A (0.3 μM): 77%
  Ki: 36 nM
[2]; [5]
  Percentage inhibition of ligand binding, Adrenergic α2A, 1 μM: 84%
[2]; 3.2 μM compound, concentration series, 3.2 µM
  Percentage inhibition of ligand binding, Adrenergic α2A, 3.2 μM: 95%
[2]; 10 μM compound, concentration series, read-out: Percentage inhibition of ligand binding, Adrenergic α2A, 10 μM
  inhibition at 10 µM: 100%
[3]; 1 nM compound, concentration series, 0.001 µM
  Percentage inhibition of ligand binding, Adrenergic α1B, 1 nM: 3%
[3]; 3.2 nM compound, concentration series, 0.0032 µM
  Percentage inhibition of ligand binding, Adrenergic α1B, 3.2 nM: 6%
[3]; concentration series
  Percentage inhibition of ligand binding, Adrenergic α1B, 10 nM: 1%
  Percentage inhibition of ligand binding, Adrenergic α1B, 0.032 μM: 15%
[3]; [4]
  Percentage inhibition of ligand binding, Adrenergic α1B (0.1 μM): 60%
[3]; Protocol Group B
  Percentage inhibition of ligand binding, Adrenergic α1B (0.3 μM): 85%
  Ki: 37.5 nM
[3]; 0.32 μM compound, concentration series, 0.32 µM
  Percentage inhibition of ligand binding, Adrenergic α1B, 0.32 μM: 76%
[3]; [5]
  Percentage inhibition of ligand binding, Adrenergic α1B, 1 μM: 87%
[3]; 3.2 μM compound, concentration series, read-out: Percentage inhibition of ligand binding, Adrenergic α1B, 3.2 μM
  inhibition at 3.2 µM: 92%

## CC(O)(Cn1c2c(c3cc(F)ccc31)C1CCCN1CC2)c1ccncc1 (single isomer, unassigned) [31a]
[1]
  inhibition at 0.01 µM: 72%
  inhibition at 0.03 µM: 90%
  inhibition at 0.1 µM: 96%
  Ki: 2.2 nM
[2]; 0.1 μM compound, Protocol Group B, read-out: Percentage inhibition of ligand binding, Adrenergic α2A (0.1 μM)
  inhibition at 0.1 µM: 33%
[2]; Protocol Group B
  inhibition at 0.3 µM: 48%
  Ki: 279 nM
[3]; 0.1 μM compound, Protocol Group B, read-out: Percentage inhibition of ligand binding, Adrenergic α1B (0.1 μM)
  inhibition at 0.1 µM: 24%
[3]; Protocol Group B
  inhibition at 0.3 µM: 47%
  Ki: 145 nM

## CC(O)(Cn1c2c(c3cc(F)ccc31)C1CCCN1CC2)c1ccncc1 (single isomer, unassigned) [31b]
[1]
  Percentage inhibition of ligand binding, Adrenergic α2B (10 nM): 68%
  Percentage inhibition of ligand binding, Adrenergic α2B (30 nM): 90%
  Percentage inhibition of ligand binding, Adrenergic α2B (0.1 μM): 97%
  Ki: 2.6 nM
[2]; [4]
  Percentage inhibition of ligand binding, Adrenergic α2A (0.1 μM): 26%
[2]; Protocol Group B
  Percentage inhibition of ligand binding, Adrenergic α2A (0.3 μM): 38%
  Ki: 362 nM
[3]; [4]
  Percentage inhibition of ligand binding, Adrenergic α1B (0.1 μM): 30%
[3]; Protocol Group B
  Percentage inhibition of ligand binding, Adrenergic α1B (0.3 μM): 50%
  Ki: 134 nM

— patent publication US20150315188A1, “COMPOUNDS AND METHODS FOR TREATMENT OF HYPERTENSION” (MEDIVATION TECHNOLOGIES, INC., priority 2012, published 2015)
